Like-named read-outs stand apart in the source and are kept apart here.
Key:
[1] = tested on: 3D7-strain P. falciparum asexual parasites; assay: P. falciparum asexual growth inhibition assay (Pf GIA); type: cell-based, Plasmodium falciparum; conditions: dose response confirmation; read-out: Pf asexual growth inhibition assays IC50
Procedure, shortened: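 0.25% parasitemia, 2% Hct, RPMI/HEPES/hypoxanthine/5% Albumax; compound dose response, 72 h, 37°C, 5% CO2, 5% O2, 90% N2. Freeze-thaw, then LDH assay, A650. % inhibition vs chloroquine (50 μM)/DMSO, mean of 3 independent runs.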

[2] = tested on: HepG2 cells; assay: HepG2 cytotoxicity assay; conditions: for IC50: read-out: HepG2 cytotoxicity assay IC50, dose response confirmation; for Pb ODA (this manuscript) HepG2 cytoxicity: HepG2 cytotoxicity listed with the Pb ODA data set (this manuscript)
Procedure, shortened: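 HepG2 cells, 2,500 per well in MEM with 10% FBS and 1% NEAA, exposed to compounds for 48 h at 37°C, 5% CO2. Viability read by fluorescence; percent inhibition relative to 50 μM doxorubicin and DMSO controls.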

[3] = tested on: P. berghei ookinete development; conditions: for % inhibition, Replicate A / % inhibition, Replicate B: primary screen at 1 μM
[4] = HepG2 values of the three screens unified
[5] = read-out: Pb ODA IC50, this manuscript
[6] = read-out: Pb Ookinete development assay IC50, dose response confirmation
[7] = unified HepG2 value across the three screens
[8] = read-out: Pb ODA (this manuscript) IC50, P. berghei ookinete development assay, this manuscript

| SMILES | IC50 [1] | HepG2 cytoxicity (Pb ODA, this manuscript) [2] | Unified cytotox [2, 4] | IC50 [2] | Is compound selective in assay? Pb ODA active? ([3]; 1: YES, 0: NO) | % inhibition, Replicate A [3] | % inhibition, Replicate B [3] | IC50 [3, 5] | IC50 [3, 6] | Unified cytotox [2, 7] | Pb ODA (this manuscript) HepG2 cytoxicity [2] | Is compound selective in assay? Pb ODA active? [3] | IC50 [3, 8] |
| --- | --- | --- | --- | --- | --- | --- | --- | --- | --- | --- | --- | --- | --- |
| Cc1[nH]c(C)c(-c2ccc(-c3ccc(F)cc3)nc2)c(=O)c1Br [TCMDC-135925] | 319 nM | 33.11 µM | 33.11 µM | 33100 nM | 1 (1: YES) | 61.34% | 86.73% | 540 nM | 542 nM |  |  |  |  |
| Cc1[nH]c(C)c(-c2ccc(-c3ccccc3F)nc2)c(=O)c1Br [TCMDC-135926] | 222 nM |  | 100.00 µM | 100000 nM | 1 (1: YES) | 85.66% | 106.09% | 460 nM | 461 nM |  |  |  |  |
| Cc1[nH]c(C)c(-c2ccc(-c3ccccc3F)nc2)c(=O)c1Cl [TCMDC-135927] | 339 nM |  | 100.00 µM | 100000 nM | 1 (1: YES) | 86.73% | 100.97% | 430 nM | 432 nM |  |  |  |  |
| COc1cc(Nc2ncc3c(C)nc(-c4cccc(Nc5ccc(CN6CCS(=O)(=O)CC6)cc5)c4)n3n2)cc(OC)c1OC [TCMDC-136003] | 1400 nM |  |  | 30900 nM | 1 (1: YES) | 93.24% | 100.90% | 180 nM | 175 nM | 30.90 µM |  |  |  |
| Cc1noc(C)c1-c1ccc2c(Nc3ccc(Cl)cc3)c(C(N)=O)cnc2c1.Cl [TCMDC-136010] | 53 nM |  |  | 4840 nM |  | 77.30% | 54.77% |  | 6660 nM |  | 4.84 µM | 0 (key: 1: YES; 0: NO) | 6660 nM |
| Cc1[nH]c(C)c(-c2ccc(-c3ccc(C(F)(F)F)cc3C(F)(F)F)nc2)c(=O)c1Br [TCMDC-136013] | 154 nM | 7.41 µM | 7.41 µM | 7410 nM | 1 (1: YES) | 94.49% | 93.70% | 190 nM | 185 nM |  |  |  |  |
| Cc1[nH]c(C)c(-c2ccc(CCc3cccc(C(F)(F)F)c3)nc2)c(=O)c1Cl [TCMDC-136014] | 93 nM | 7.08 µM | 7.08 µM | 7080 nM | 1 (1: YES) | 91.00% | 104.63% | 120 nM | 123 nM |  |  |  |  |
| Cc1[nH]c(C)c(-c2ccc(-c3cc(C(F)(F)F)cc(C(F)(F)F)c3)nc2)c(=O)c1Br [TCMDC-136015] | 24 nM | 1.26 µM | 1.26 µM | 1260 nM | 1 (1: YES) | 84.59% | 96.22% | 110 nM | 107 nM |  |  |  |  |
| Cc1[nH]c(C)c(-c2ccc(-c3ccc(OC(F)(F)F)cc3)nc2)c(=O)c1Br [TCMDC-136016] | 326 nM |  | 100.00 µM | 100000 nM | 1 (1: YES) | 59.20% | 74.30% | 450 nM | 446 nM |  |  |  |  |
| Cc1[nH]c(C)c(-c2csc3ccccc23)c(=O)c1Cl [TCMDC-136017] | 2260 nM |  |  | 100000 nM | 1 (1: YES) | 37.82% | 76.50% | 1840 nM | 1840 nM | 100.00 µM |  |  |  |
| Cc1noc(C)c1-c1ccc2c(Nc3ccc(C(F)(F)F)cc3)c(C(N)=O)cnc2c1.Cl [TCMDC-136019] | 365 nM |  |  | 49000 nM |  | 61.84% | 39.20% |  | 5460 nM |  | 48.98 µM | 0 (key: 1: YES; 0: NO) | 5460 nM |
| Cc1nc2c(c([O-])c1Cl)-c1ccc(Oc3cccc(C(F)(F)F)c3)cc1C2=O.[Na+] [TCMDC-136021] | 54 nM |  |  | 39800 nM | 1 (1: YES) | 94.15% | 74.80% | 780 nM | 785 nM | 39.81 µM |  |  |  |
| Cc1noc(C)c1-c1ccc2c(Nc3ccc(C#N)cc3)c(C(N)=O)cnc2c1 [TCMDC-136029] | 609 nM |  |  | 69200 nM |  | 61.24% | 98.78% |  | 3830 nM |  | 69.18 µM | 1 (key: 1: YES; 0: NO) | 3830 nM |
| Cc1[nH]c(C)c(-c2ccc(CCc3ccc(C(F)(F)F)cc3)nc2)c(=O)c1Cl [TCMDC-136051] | 52 nM | 56.89 µM | 56.89 µM | 56900 nM | 1 (1: YES) | 100.56% | 100.86% | 140 nM | 144 nM |  |  |  |  |
| CC(=O)c1ccc(Nc2c(C(N)=O)cnc3cc(-c4c(C)noc4C)ccc23)cc1 [TCMDC-136058] | 1350 nM |  |  | 100000 nM |  | 86.92% | 80.92% |  | 3200 nM |  | 100.00 µM | 1 (key: 1: YES; 0: NO) | 3200 nM |
| Cc1[nH]c(C)c(-c2ccc(-c3ccc(OC(F)(F)F)cc3)cc2)c(=O)c1Cl [TCMDC-136060] | 77 nM | 64.57 µM | 64.57 µM | 64600 nM | 1 (1: YES) | 87.72% | 84.45% | 53.8 nM | 54 nM |  |  |  |  |
| COc1ccc(Oc2ccc(-c3c(C)[nH]c(C)c(Cl)c3=O)cc2)cc1 [TCMDC-136134] | 7.4 nM |  | 100.00 µM | 100000 nM | 1 (1: YES) | 121.16% | 100.57% | 420 nM | 422 nM |  |  |  |  |
| Cc1[nH]c(C)c(-c2ccc(-c3ccccc3Cl)nc2)c(=O)c1Br [TCMDC-136157] | 48 nM | 0.14 µM | 0.14 µM | 140 nM | 0 (0: NO) | 96.17% | 90.55% | 430 nM | 432 nM |  |  |  |  |
| Cc1[nH]c(C)c(-c2ccc(-c3ccc(Cl)cc3)nc2)c(=O)c1Br [TCMDC-136159] | 625 nM |  | 100.00 µM | 100000 nM | 1 (1: YES) | 98.54% | 60.48% |  | 940 nM |  |  |  |  |
| Cc1[nH]c(C)c(-c2ccc(-c3cccc(Cl)c3)nc2)c(=O)c1Br [TCMDC-136160] | 251 nM |  | 100.00 µM | 100000 nM | 1 (1: YES) | 97.52% | 67.64% | 2090 nM | 2090 nM |  |  |  |  |
| Cc1[nH]c(C)c(-c2ccc(-c3ccc4c(c3)OCO4)nc2)c(=O)c1Br [TCMDC-136161] | 646 nM |  | 100.00 µM | 100000 nM | 1 (1: YES) | 101.58% | 91.12% | 1430 nM | 1430 nM |  |  |  |  |
| CCCCN(C)CC#Cc1ccc2[nH]c(C)c(Cl)c(=O)c2c1 [TCMDC-136185] | 49 nM |  |  | 3090 nM | 1 (1: YES) | 106.94% | 101.22% | 210 nM | 207 nM | 3.09 µM |  |  |  |
| Cc1[nH]c2ccc(-c3ccc(N(C)C)cc3)cc2c(=O)c1Cl [TCMDC-136188] | 227 nM |  |  | 100000 nM | 1 (1: YES) | 79.29% | 60.77% | 550 nM | 547 nM | 100.00 µM |  |  |  |
| Cc1[nH]cc(Br)c(=O)c1-c1ccc(Oc2ccccc2)cc1 [TCMDC-136196] | 422 nM |  | 100.00 µM | 100000 nM | 1 (1: YES) | 91.11% | 82.53% | 370 nM | 369 nM |  |  |  |  |
